Data taken from patent US7754896B2, “Indol-alanine derivatives as selective S1P4-agonists” (Novartis AG, priority 2004, dated 2010).

Target: T1, S1P4 (Homo sapiens, UniProt O95977)
T1 construct: expressed in transfected cells
T1 sequence (O95977 1-384): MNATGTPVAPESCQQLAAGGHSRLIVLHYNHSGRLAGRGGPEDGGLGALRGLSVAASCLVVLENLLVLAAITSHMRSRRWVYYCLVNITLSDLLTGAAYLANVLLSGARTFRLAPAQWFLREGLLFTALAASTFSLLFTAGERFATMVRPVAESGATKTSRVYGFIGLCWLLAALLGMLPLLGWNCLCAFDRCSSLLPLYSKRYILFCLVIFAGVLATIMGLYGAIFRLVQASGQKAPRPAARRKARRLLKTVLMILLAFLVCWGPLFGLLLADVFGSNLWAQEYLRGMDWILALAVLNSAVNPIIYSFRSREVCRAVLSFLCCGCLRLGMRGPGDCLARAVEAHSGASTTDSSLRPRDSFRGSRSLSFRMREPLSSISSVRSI
Test: EC50 for S1P4 'in this assay' (GTPγS binding or calcium mobilization, not specified)
Type: cell-based
Settings: assay format not specified ('this assay')
Protocol: The selection of the clones to be tested in the GTPγS assay is based on the real time PCR assays. CHO clones expressing large amounts of human S1P4 are used in these experiments. Membrane proteins are prepared as described above. The basic protocol of GTPγ^35S-binding assay used is described in a recent publication (Brinkmann et al. 2002, J. Biol. Chem, 277, 21453) with the modifications described here below. To characterize the GTPγ^35S-binding to membrane proteins from CHO cells expressing S1P, WGA coated PVT beads (SPA-bead, Amersham Biosciences) are used. Because β-rays of GTPγ^35S have […] in water solution, the plates are centrifuged to minimize non-specific effects caused by the non bound GTPγ^35S. The assay is performed in 96-well Optiplates (Packard, Cat. N^o 6005190) in final volume of 225 μl/well. […] The plates are then centrifuged for 10 minutes at 2000 rpm and counted with a TopCount instrument (Packard). […]
CHO cells are plated in black Costar plate (96 or 384 well, 50,000 cells or 12,500 cells, respectively) in a MEM with FCS and cultured for 20-24 h at 37° C. in a CO2 incubator. […] After measuring the baseline for 40 sec, the agonist in HBSS is added and the fluorescence is measured at intervals of 2 sec for 3 to 5 min. […]

EC50: 432 nM
SMILES: CCc1ccccc1-c1cccc2[nH]c(C(=O)NC[C@@H](N)C(=O)O)cc12 [Example 1, 3-(4-(2-Ethylphenyl)-2-carboxamido-indole)-D-alanine]
